The values below come from PubChem BioAssay AID328 (DTP/NCI, 2004).

The experiment has as its system BDF1 mice, P388 leukemia ip, median survival T/C. The experiment can be described thus: NCI In Vivo Anticancer Drug Screen. Data for tumor model P388 Leukemia (intraperitoneal) in B6D2F1 (BDF1) mice. The settings on record: endpoint: median survival time, higher = longer survival. In a few lines:
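Survival ratio, drug arm over vehicle arm, in mice with a transplanted tumour.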

Setting [1] is: dose: 6.25 mg/kg/injection, schedule: Q01DX009 (ip), vehicle: saline.
[2] abbreviates: dose: 12.5 mg/kg/injection, schedule: Q01DX009 (ip), vehicle: saline.
Setting [3] is: dose: 25.0 mg/kg/injection, schedule: Q01DX009 (ip), vehicle: saline.
The mark [4] stands for this setting: dose: 100.0 mg/kg/injection, schedule: Q04DX003 (ip), vehicle: saline.
Where [5] appears, read: dose: 200.0 mg/kg/injection, schedule: Q04DX003 (ip), vehicle: saline.
Setting [6] is: dose: 100.0 mg/kg/injection, schedule: Q04DX003 (ip), vehicle: saline with Tween-80.
Where [7] appears, read: dose: 200.0 mg/kg/injection, schedule: Q04DX003 (ip), vehicle: saline with Tween-80.
The mark [8] stands for this setting: dose: 400.0 mg/kg/injection, schedule: Q04DX003 (ip), vehicle: saline with Tween-80.
The mark [9] stands for this setting: dose: 50.0 mg/kg/injection, schedule: Q01DX009 (ip), vehicle: saline with Tween-80.
The mark [10] stands for this setting: dose: 100.0 mg/kg/injection, schedule: Q01DX009 (ip), vehicle: saline with Tween-80.
Setting [11] is: dose: 400.0 mg/kg/injection, schedule: Q01DX009 (ip), vehicle: saline with Tween-80.
[12] abbreviates: dose: 200.0 mg/kg/injection, schedule: Q01DX009 (ip), vehicle: saline with Tween-80.
The mark [13] stands for this setting: dose: 150.0 mg/kg/injection, schedule: Q01DX009 (ip), vehicle: saline.
The mark [14] stands for this setting: dose: 25.0 mg/kg/injection, schedule: Q01DX009 (ip), vehicle: saline with Tween-80.

Where “and” joins values, the source holds several entries; their conditions need not be identical. Identical values can stand only once. Toxic doses and inconclusive results are not listed.

For the compound `Cn1cnc([N+](=O)[O-])c1[Se]c1ncnc2c1ccn2C1OC(CO)C(O)C1O` (centres undefined), the T/C under setting [1] was 107 % of control; the T/C under setting [2] was 88 % of control; the T/C under setting [3] was 102 % of control; the T/C under setting [4] was 100 % of control; the T/C under setting [5] was 104 % of control.
With `CCCCC(/C=C1/CCCCC1=O)CC` (centres undefined), the T/C is 95 % of control (dose: 100.0 mg/kg/injection, schedule: Q01DX009 (ip), vehicle: Klucel (hydroxypropylcellulose) (HPC)); 104 % of control (dose: 100.0 mg/kg/injection, schedule: Q04DX003 (ip), vehicle: Klucel (hydroxypropylcellulose) (HPC)); 87 % of control (dose: 200.0 mg/kg/injection, schedule: Q01DX009 (ip), vehicle: Klucel (hydroxypropylcellulose) (HPC)); 104 % of control (dose: 200.0 mg/kg/injection, schedule: Q04DX003 (ip), vehicle: Klucel (hydroxypropylcellulose) (HPC)); 91 % of control (dose: 400.0 mg/kg/injection, schedule: Q01DX009 (ip), vehicle: Klucel (hydroxypropylcellulose) (HPC)); 113 % of control (dose: 400.0 mg/kg/injection, schedule: Q04DX003 (ip), vehicle: Klucel (hydroxypropylcellulose) (HPC)).
Turning to `CN(N=O)P(=O)(Nc1ccccc1)Nc1ccccc1`, the T/C runs as follows: (dose: 25.0 mg/kg/injection, schedule: Q04DX003 (ip), vehicle: other) 100 % of control; (dose: 50.0 mg/kg/injection, schedule: Q04DX003 (ip), vehicle: other) 100 % of control; (dose: 100.0 mg/kg/injection, schedule: Q04DX003 (ip), vehicle: other) 95 % of control.
As for `COC1OC(COC(=O)c2ccccc2)C(OC(=O)c2ccccc2)C(OC(=O)c2ccccc2)C1OC(=O)c1ccccc1` (centres undefined), the T/C under setting [6] is 91 % of control, the T/C under setting [7] was 91 % of control and the T/C under setting [8] is 91 % of control.
`CCCCCCOC(=O)/C=C(/C)OCCCCCC`: the T/C was 100 % of control under setting [9]; 113 % of control (dose: 87.5 mg/kg/injection, schedule: Q01DX009 (ip), vehicle: saline with Tween-80); 105 % of control under setting [10]; 108 % of control under setting [4]; 100 % of control (dose: 175.0 mg/kg/injection, schedule: Q01DX009 (ip), vehicle: saline with Tween-80); 104 % of control under setting [5]. For the same compound, the T/C reads like this: (dose: 265.0 mg/kg/injection, schedule: Q01DX009 (ip), vehicle: saline with Tween-80) 113 % of control; under setting [11], 118 % of control; (dose: 400.0 mg/kg/injection, schedule: Q04DX003 (ip), vehicle: saline) 108 % of control.
For the compound `COc1cc2c(cc1OC)-c1c(C)c3ccc(OC)c(NCc4ccccc4)c3c[n+]1CC2`, the T/C reads like this: (dose: 1.56 mg/kg/injection, schedule: Q04DX003 (ip), vehicle: other) 107 % of control; (dose: 3.13 mg/kg/injection, schedule: Q04DX003 (ip), vehicle: other) 100 % of control; (dose: 6.25 mg/kg/injection, schedule: Q04DX003 (ip), vehicle: other) 90 % of control.
Consider `CC1=NN(c2ccccc2)C(=O)C1C(=S)SC1CC(=O)NC1=O` (centres undefined), for which the T/C runs as follows: under setting [9], 117 % of control; under setting [10], 103 % of control; under setting [12], 108 % of control.
As to `COC(=O)CC1(O)C=CC(=O)C=C1`, the T/C was 165 % of control (dose: 2.0 mg/kg/injection, schedule: Q01DX009 (ip), vehicle: saline); 114 % of control (dose: 5.0 mg/kg/injection, schedule: Q01DX009 (ip), vehicle: saline); 116 % of control (dose: 10.0 mg/kg/injection, schedule: Q01DX009 (ip), vehicle: saline); 153 % of control under setting [3].
As to `CCNc1nncs1`, the T/C by setting is: (dose: 30.0 mg/kg/injection, schedule: Q01DX009 (ip), vehicle: saline) 116 % of control; (dose: 38.0 mg/kg/injection, schedule: Q04DX003 (ip), vehicle: saline with Tween-80) 100 % of control; (dose: 44.0 mg/kg/injection, schedule: Q01DX009 (ip), vehicle: saline) 114 % of control; (dose: 58.0 mg/kg/injection, schedule: Q04DX003 (ip), vehicle: saline with Tween-80) 100 % of control; (dose: 88.0 mg/kg/injection, schedule: Q04DX003 (ip), vehicle: saline with Tween-80) 108 % of control; (dose: 100.0 mg/kg/injection, schedule: Q01DX009 (ip), vehicle: saline) 150 % of control and 168 % of control. For the same compound, the T/C by setting is: under setting [4], 86 % of control; under setting [13], 105 % of control; under setting [7], 165 % of control; (dose: 225.0 mg/kg/injection, schedule: Q01DX009 (ip), vehicle: saline) 95 % of control; (dose: 300.0 mg/kg/injection, schedule: Q04DX003 (ip), vehicle: saline with Tween-80) 196 % of control.
As for `CCOC(=O)NCCc1ccc(OC)c(OC)c1`, the T/C under setting [14] is 109 % of control; the T/C under setting [9] was 124 % of control; the T/C under setting [10] is 89 % of control; the T/C under setting [12] is 106 % of control; the T/C under setting [11] was 107 % of control.
For `Clc1cc(Cl)c(CBr)cc1CBr`, the T/C reads like this: (dose: 3.13 mg/kg/injection, schedule: Q01DX009 (ip), vehicle: saline with Tween-80) 109 % of control; (dose: 6.25 mg/kg/injection, schedule: Q01DX009 (ip), vehicle: saline with Tween-80) 100 % of control; (dose: 12.5 mg/kg/injection, schedule: Q01DX009 (ip), vehicle: saline with Tween-80) 104 % of control.
`C1CO[Te]2(O1)OCCO2`: the T/C reads like this: (dose: 12.5 mg/kg/injection, schedule: Q04DX003 (ip), vehicle: saline with Tween-80) 97 % of control; (dose: 25.0 mg/kg/injection, schedule: Q04DX003 (ip), vehicle: saline with Tween-80) 88 % of control; (dose: 50.0 mg/kg/injection, schedule: Q04DX003 (ip), vehicle: saline with Tween-80) 88 % of control.
For the compound `[Cr+6].[NH2-].[NH2-].[NH2-].[NH2-].[NH2-].[NH2-]`, the T/C (dose: 4.1 mg/kg/injection, schedule: Q04DX003 (ip), vehicle: saline) was 116 % of control; the T/C (dose: 5.4 mg/kg/injection, schedule: Q04DX003 (ip), vehicle: saline) is 109 % of control; the T/C under setting [1] is 120 % of control; the T/C (dose: 8.2 mg/kg/injection, schedule: Q01DX009 (ip), vehicle: saline) is 122 % of control; the T/C (dose: 8.2 mg/kg/injection, schedule: Q04DX003 (ip), vehicle: saline) was 109 % of control; the T/C (dose: 25.0 mg/kg/injection, schedule: Q01DX001 (ip), vehicle: saline) was 112 % of control. Moreover, for the setting “dose: 50.0 mg/kg/injection, schedule: Q01DX001 (ip), vehicle: saline”, the T/C is 112 % of control.
`C/C(Cc1ccccc1)=N\O`: the T/C was 100 % of control under setting [10] and 110 % of control under setting [12].
As for `ClCCn1cnc2c(SCc3ccccc3Cl)ncnc21`, the T/C under setting [14] was 100 % of control; the T/C under setting [9] is 91 % of control; the T/C under setting [10] was 108 % of control; the T/C under setting [6] was 100 % of control; the T/C under setting [8] is 112 % of control.
`CC(=O)N(C)c1ccc(Nc2cc(C)[nH]c3ccc4ncnc4c23)cc1`: the T/C was 158 % of control (dose: 50.0 mg/kg/injection, schedule: Q04DX002 (ip), vehicle: saline); 181 % of control (dose: 100.0 mg/kg/injection, schedule: Q04DX002 (ip), vehicle: saline with Tween-80); 181 % of control (dose: 100.0 mg/kg/injection, schedule: Q04DX002 (ip), vehicle: saline).
With `C=Cc1ccccc1-c1ccccc1C(=O)OC`, the T/C is 87 % of control under setting [7] and 105 % of control under setting [8].
With `CC(C)=CC(=O)OCC[N+](C)(C)C`, the T/C is 97 % of control under setting [2] and 90 % of control under setting [3].
`O=C(CCCCC(=O)Nc1ccc(C(=O)Nc2cc(C3=NCCN3)cc(C3=NCCN3)c2)cc1)Nc1ccc(C(=O)Nc2cc(C3=NCCN3)cc(C3=NCCN3)c2)cc1`: the T/C (dose: 66.0 mg/kg/injection, schedule: Q01DX009 (ip), vehicle: saline) was 150 % of control; the T/C under setting [13] is 150 % of control; the T/C (dose: 150.0 mg/kg/injection, schedule: Q04DX003 (ip), vehicle: saline) is 154 % of control; the T/C under setting [5] was 150 % of control.
For the compound `CCOC(=O)CCN(CC(=O)OCC)C(C)C`, the T/C under setting [10] is 104 % of control; the T/C under setting [6] was 95 % of control; the T/C under setting [12] is 104 % of control; the T/C under setting [7] is 104 % of control; the T/C under setting [11] was 109 % of control; the T/C under setting [8] is 95 % of control.
